# Assay results from patent publication US9884048B2, “ERK inhibitors” (Merck Sharp & Dohme Corp., priority 2014, dated 2018).
# Molecular target: phosphorylated active hERK2 enzyme (Homo sapiens (Human), UniProt P28482)
# Details: read-out: ERK2 IC50; IMAP-FP assay; 0.5 nM hERK2, 30 μM ATP; 10 point titration, 3 μM starting concentration
# Method: Active Human ERK2 (hERK2) Activity Assay:
# Activated ERK2 activity was determined in an IMAP-FP assay (Molecular Devices). […] The final reaction in each well of 25 μL consists of 0.5 nM hERK2, 900 nM unlabeled peptide, 80 nM labeled-peptide, and 30 μM ATP. Phosphorylation reactions were allowed to proceed for 60 minutes and were immediately quenched by the addition of 60 μL IMAP detection beads (1:1000 dilutions) in IMAP binding buffer (Molecular Devices) with 24 mM NaCl. Plates were read on EnVision reader after 60 minutes binding equilibration using Fluorescence Polarization protocol (Perkin Elmer).
# Chain of phosphorylated active hERK2 enzyme (P28482 whole entry): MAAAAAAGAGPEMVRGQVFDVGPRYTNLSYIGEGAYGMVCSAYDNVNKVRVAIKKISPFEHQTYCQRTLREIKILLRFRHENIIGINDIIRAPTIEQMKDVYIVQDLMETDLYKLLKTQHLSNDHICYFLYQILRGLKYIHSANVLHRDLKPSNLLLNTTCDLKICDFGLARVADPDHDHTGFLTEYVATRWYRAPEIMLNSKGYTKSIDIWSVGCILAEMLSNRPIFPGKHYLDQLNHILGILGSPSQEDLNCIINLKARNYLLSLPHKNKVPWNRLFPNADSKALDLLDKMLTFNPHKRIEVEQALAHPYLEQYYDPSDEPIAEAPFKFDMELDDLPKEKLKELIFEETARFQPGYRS
row,Compound,IC50 [nM]
1,"Cc1cc(-n2ncc3cc(NC(=O)N[C@@H](CN)c4ccccc4)ncc32)ccn1 [Example 186, 1-[(1R)-2-amino-1-phenylethyl]-3-[1-(2-methylpyridin-4-yl)-1H-pyrazolo[3,4-c]pyridin-5-yl]urea]",42.5
2,"Cc1cc(-n2ncc3cc(NC(=O)N[C@H](CN)c4ccccc4)ncc32)ccn1 [Example 187, 1-[(1S)-2-amino-1-phenylethyl]-3-[1-(2-methylpyridin-4-yl)-1H-pyrazolo[3,4-c]pyridin-5-yl]urea]",0.685
3,"Cc1cc(-n2ncc3cc(NC(=O)N[C@@H]4CN(C)C[C@H]4c4ccc(C)s4)ncc32)ccn1 [Example 188, 1-[(3S,4R)-1-methyl-4-(5-methylthiophen-2-yl)pyrrolidin-3-yl]-3-[1-(2-methylpyridin-4-yl)-1H-pyrazolo[3,4-c]pyridin-5-yl]urea]",70.1
4,"Cc1cc(-n2ncc3cc(NC(=O)N[C@H]4CN(C)C[C@@H]4c4ccc(C)s4)ncc32)ccn1 [Example 189, 1-[(3R,4S)-1-methyl-4-(5-methylthiophen-2-yl)pyrrolidin-3-yl]-3-[1-(2-methylpyridin-4-yl)-1H-pyrazolo[3,4-c]pyridin-5-yl]urea]",0.254
5,"Cc1cc(-n2ncc3cc(NC(=O)N[C@@H]4CN(C)C[C@H]4c4ccccc4C)ncc32)ccn1 [Example 190, 1-[(3S,4R)-1-methyl-4-(2-methylphenyl)pyrrolidin-3-yl]-3-[1-(2-methylpyridin-4-yl)-1H-pyrazolo[3,4-c]pyridin-5-yl]urea]",11.7
6,"Cc1cc(-n2ncc3cc(NC(=O)N[C@H]4CN(C)C[C@@H]4c4ccccc4C(F)(F)F)ncc32)ccn1 [Example 191, 1-[1-(2-methylpyridin-4-yl)-1H-pyrazolo[3,4-c]pyridin-5-yl]-3-{(3R,4S)-1-methyl-4-[2-(trifluoromethyl)-phenyl]pyrrolidin-3-yl}urea]",0.509
7,"Cc1cc(-n2ncc3cc(NC(=O)N[C@@H]4CN(C)C[C@H]4c4ccccc4C(F)(F)F)ncc32)ccn1 [Example 192, 1-[1-(2-methylpyridin-4-yl)-1H-pyrazolo[3,4-c]pyridin-5-yl]-3-{(3S,4R)-1-methyl-4-[2-(trifluoromethyl)-phenyl]pyrrolidin-3-yl}urea]",235
8,"CO[C@H]1CN(C)C[C@@H]1NC(=O)Nc1cc2cnn(-c3ccnc(C)c3)c2cn1 [Example 193, 1-[(3S,4S)-4-methoxy-1-methylpyrrolidin-3-yl]-3-[1-(2-methylpyridin-4-yl)-1H-pyrazolo[3,4-c]pyridin-5-yl]urea]",2530
9,"CO[C@@H]1CN(C)C[C@H]1NC(=O)Nc1cc2cnn(-c3ccnc(C)c3)c2cn1 [Example 194, 1-[(3R,4R)-4-methoxy-1-methylpyrrolidin-3-yl]-3-[1-(2-methylpyridin-4-yl)-1H-pyrazolo[3,4-c]pyridin-5-yl]urea]",47.7
10,"Cc1cc(-n2ncc3cc(NC(=O)N[C@H]4CN(C5CCC5)C[C@@H]4c4ccccc4)ncc32)ccn1 [Example 195, 1-[(3R,4S)-1-cyclobutyl-4-phenylpyrrolidin-3-yl]-3-[1-(2-methylpyridin-4-yl)-1H-pyrazolo[3,4-c]pyridin-5-yl]urea]",3.6
11,"Cc1cc(-n2ncc3cc(NC(=O)N[C@@H]4CN(C5CCC5)C[C@H]4c4ccccc4)ncc32)ccn1 [Example 196, 1-[(3S,4R)-1-cyclobutyl-4-phenylpyrrolidin-3-yl]-3-[1-(2-methylpyridin-4-yl)-1H-pyrazolo[3,4-c]pyridin-5-yl]urea]",354
12,"Cc1cc(-n2ncc3cc(NC(=O)N[C@@H]4CN(C(C)C)C[C@H]4c4ccccc4)ncc32)ccn1 [Example 197, 1-[(3S,4R)-1-(1-methyl-ethyl)-4-phenylpyrrolidin-3-yl]-3-[1-(2-methylpyridin-4-yl)-1H-pyrazolo[3,4-c]-pyridin-5-yl]urea]",60.8
13,"Cc1cc(-n2ncc3cc(NC(=O)N[C@H]4CN(C(C)C)C[C@@H]4c4ccccc4)ncc32)ccn1 [Example 198, 1-[(3R,4S)-1-(1-methylethyl)-4-phenylpyrrolidin-3-yl]-3-[1-(2-methylpyridin-4-yl)-1H-pyrazolo[3,4-c]pyridin-5-yl]urea]",2.64
14,"CCN1C[C@H](NC(=O)Nc2cc3cnn(-c4ccnc(C)c4)c3cn2)[C@@H](c2ccccc2)C1 [Example 199, 1-[(3R,4S)-1-ethyl-4-phenylpyrrolidin-3-yl]-3-[1-(2-methylpyridin-4-yl)-1H-pyrazolo[3,4-c]pyridin-5-yl]urea]",0.718
15,"CCN1C[C@@H](NC(=O)Nc2cc3cnn(-c4ccnc(C)c4)c3cn2)[C@H](c2ccccc2)C1 [Example 200, 1-[(3S,4R)-1-ethyl-4-phenylpyrrolidin-3-yl]-3-[1-(2-methylpyridin-4-yl)-1H-pyrazolo[3,4-c]pyridin-5-yl]urea]",20.6
16,"Cc1cc(-n2ncc3cc(NC(=O)N[C@@H]4CN(C)C5(COC5)[C@H]4c4ccccc4)ncc32)ccn1 [Example 201, 1-[(7S,8S)-5-methyl-8-phenyl-2-oxa-5-azaspiro[3.4]oct-7-yl]-3-[1-(2-methylpyridin-4-yl)-1H-pyrazolo[3,4-c]pyridin-5-yl]urea]",0.689
17,"Cc1cc(-n2ncc3cc(NC(=O)N[C@H]4CN(C)C5(COC5)[C@@H]4c4ccccc4)ncc32)ccn1 [Example 202, 1-[(7R,8R)-5-methyl-8-phenyl-2-oxa-5-azaspiro[3.4]oct-7-yl]-3-[1-(2-methylpyridin-4-yl)-1H-pyrazolo[3,4-c]pyridin-5-yl]urea]",300

row,Compound,IC50 [nM]
1,"Cc1cc(-n2ncc3cc(NC(=O)N[C@@H](C)c4ccccn4)ncc32)ccn1 [Example 203, 1-[1-(2-methylpyridin-4-yl)-1H-pyrazolo[3,4-c]pyridin-5-yl]-3-[(1S)-1-pyridin-2-ylethyl]urea]",1180
2,"Cc1cc(-n2ncc3cc(NC(=O)N[C@H](C)c4ccccn4)ncc32)ccn1 [Example 204, 1-[1-(2-methylpyridin-4-yl)-1H-pyrazolo[3,4-c]pyridin-5-yl]-3-[(1R)-1-pyridin-2-ylethyl]urea]",7.84
3,"C[C@@H](NC(=O)Nc1cc2cnn(-c3cnn(C)c3)c2cn1)c1ccc(F)c(Cl)c1 [Example 205, (R)-1-(1-(3-chloro-4-fluorophenyl)ethyl)-3-(1-(1-methyl-1H-pyrazol-4-yl)-1H-pyrazolo[3,4-c]pyridin-5-yl)urea]",12.1
4,"Cn1ncc2ccc(-n3ncc4cc(NC(=O)N[C@@H](c5ccccc5)C(C)(C)O)ncc43)cc21 [Example 206, 1-[(1S)-2-hydroxy-2-methyl-1-phenylpropyl]-3-[1-(1-methyl-1H-indazol-6-yl)-1H-pyrazolo[3,4-c]pyridin-5-yl]urea]",0.99
5,"Cn1cc2cc(-n3ncc4cc(NC(=O)N[C@@H](c5ccccc5)C(C)(C)O)ncc43)ccc2n1 [Example 207, 1-[(1S)-2-hydroxy-2-methyl-1-phenylpropyl]-3[-1-(2-methyl-2H-indazol-5-yl)-1H-pyrazolo[3,4-c]pyridin-5-yl]urea]",0.33
6,"CN1C[C@H](NC(=O)Nc2cc3cnn(-c4ccc(F)cc4)c3cn2)[C@@H](c2ccccc2)C1 [Example 208, 1-[1-(4-fluorophenyl)-1H-pyrazolo[3,4-c]pyridin-5-yl]-3-[(3R,4S)-1-methyl-4-phenylpyrrolidin-3-yl]urea]",0.579
7,"COC[C@H](NC(=O)Nc1cc2cnn(-c3ccnc(C)c3)c2cn1)c1ccccn1 [Example 209, 1-[(1R)-2-methoxy-1-pyridin-2-ylethyl]-3-[1-(2-methylpyridin-4-yl)-1H-pyrazolo[3,4-c]pyridin-5-yl]urea]",24.5
8,"COC[C@@H](NC(=O)Nc1cc2cnn(-c3ccnc(C)c3)c2cn1)c1ccccn1 [Example 210, 1-[(1S)-2-methoxy-1-pyridin-2-ylethyl]-3-[1-(2-methylpyridin-4-yl)-1H-pyrazolo[3,4-c]pyridin-5-yl]urea]",745
9,"Cc1cncc(-n2ncc3cc(NC(=O)N[C@H](C)c4ccccc4)ncc32)n1 [Example 211, 1-[1-(6-methylpyrazin-2-yl)-1H-pyrazolo[3,4-c]pyridin-5-yl]-3-[(1R)-1-phenylethyl]urea]",549
10,"Cc1cnc(-n2ncc3cc(NC(=O)N[C@H](C)c4ccccc4)ncc32)cn1 [Example 212, 1-[1-(5-methylpyrazin-2-yl)-1H-pyrazolo[3,4-c]pyridin-5-yl]-3-[(1R)-1-phenylethyl]urea]",521
11,"Cc1ccc(-n2ncc3cc(NC(=O)N[C@H](C)c4ccccc4)ncc32)nn1 [Example 213, 1-[1-(6-methylpyridazin-3-yl)-1H-pyrazolo[3,4-c]pyridin-5-yl]-3-[(1R)-1-phenylethyl]urea]",208
12,"Cc1cc(-n2ncc3cc(NC(=O)NCc4ccc(F)c(Cl)c4)ncc32)ccn1 [Example 214, 1-(3-chloro-4-fluorobenzyl)-3-[1-(2-methylpyridin-4-yl)-1H-pyrazolo[3,4-c]pyridin-5-yl]urea]",4.05
13,"Cc1cc(-n2ncc3cc(NC(=O)NCc4cccc(Cl)c4)ncc32)ccn1 [Example 215, 1-(3-chlorobenzyl)-3-[1-(2-methylpyridin-4-yl)-1H-pyrazolo[3,4-c]pyridin-5-yl]urea]",5.04
14,"Cn1cc(-n2ncc3cc(NC(=O)NCc4cccc(Cl)c4)ncc32)cn1 [Example 216, 1-(3-chlorobenzyl)-3-[1-(1-methyl-1H-pyrazol-4-yl)-1H-pyrazolo[3,4-c]pyridin-5-yl]urea]",15.7
15,"C[C@@H](NC(=O)Nc1cc2cnn(-c3cnn(C)c3)c2cn1)c1cccc(Cl)c1 [Example 217, 1-[(1R)-1-(3-chlorophenyl)ethyl]-3-[1-(1-methyl-1H-pyrazol-4-yl)-1H-pyrazolo[3,4-c]pyridin-5-yl]urea]",5.45
16,"Cn1cc(-n2ncc3cc(NC(=O)NCc4ccc(F)c(Cl)c4)ncc32)cn1 [Example 218, 1-(3-chloro-4-fluorobenzyl)-3-[1-(1-methyl-1H-pyrazol-4-yl)-1H-pyrazolo[3,4-c]pyridin-5-yl]urea]",20.8
17,"Cc1cc(-n2ncc3cc(NC(=O)N[C@H](C)c4ccc(F)c(Cl)c4)ncc32)ccn1 [Example 219, 1-[(1R)-1-(3-chloro-4-fluorophenyl)ethyl]-3-[1-(2-methylpyridin-4-yl)-1H-pyrazolo[3,4-c]pyridin-5-yl]urea]",2.85
